Experimental data reported in article PMC4604124, “In Vitro Characterization of the Pharmacological Properties of the Anti-Cancer Chelator, Bp4eT, and Its Phase I Metabolites” (PLoS ONE, 2015).
“And” between values parts separate entries of the source, which are not always exact repeats. Equal values may be shown once.

Legend:
[1] = Ascorbate oxidation assay (redox activity of iron complexes); format: biochemical;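 as to %Fe 30min (ascorbate oxidation, Fe 100%), průměr: IBE 3 means excess free chelator over iron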;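 as to %Fe 30min (ascorbate oxidation, Fe 100%): IBE 3 means excess free chelator over iron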;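 as to %Fe 30min (ascorbate oxidation, Fe = 100%), průměr (mean): IBE 1 means iron-binding equivalents giving fully coordinated iron-chelator complexes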;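 as to %Fe 30min (ascorbate oxidation, Fe = 100%), single replicates: IBE 1 means iron-binding equivalents giving fully coordinated iron-chelator complexes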;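 as to %Fe 30min: ascorbate oxidation as % of the Fe control (Fe 100%): IBE 0.1 means iron-binding equivalents with iron in excess over chelator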;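 as to Change of absorbance, odečet 0 (time 0 subtracted), čas 10, průměr: IBE 3 means excess free chelator over 10 µM FeCl3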;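 as to Change of absorbance, odečet 0 (time 0 subtracted), čas 10: IBE 3 means excess free chelator over 10 µM FeCl3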;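 as to Change of absorbance, odečet 0 (time 0 subtracted), čas 20, průměr: 100 µM ascorbate with 10 µM FeCl3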;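 as to Change of absorbance, odečet 0 (time 0 subtracted), čas 20: 100 µM ascorbate with 10 µM FeCl3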;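 as to Change of absorbance, odečet 0 (time 0 subtracted), čas 30, průměr: 100 µM ascorbate with 10 µM FeCl3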;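 as to Change of absorbance, odečet 0 (time 0 subtracted), čas 30: 100 µM ascorbate with 10 µM FeCl3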;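 as to odečet 0 (reading minus time 0 reading) at čas 20, single replicates: IBE 1 means fully coordinated iron chelator complexes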;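 as to odečet 0 (reading minus time 0 reading) at čas 30, průměr (mean): IBE 1 means fully coordinated iron chelator complexes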;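 as to odečet 0 (reading minus time 0 reading) at čas 30, single replicates: IBE 1 means fully coordinated iron chelator complexes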;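 as to raw reading at čas 20 (time 20), průměr (mean): IBE 1 means fully coordinated iron chelator complexes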;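 as to raw reading at čas 20 (time 20), single replicates: IBE 1 means fully coordinated iron chelator complexes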;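 as to raw reading at čas 30 (time 30), průměr (mean): IBE 1 means fully coordinated iron chelator complexes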;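 as to raw reading at čas 30 (time 30), single replicates: IBE 1 means fully coordinated iron chelator complexes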
MCF-7 cells = assay: Cellular 59Fe uptake from 59Fe2-transferrin; format: cell-based, human; set-up: key to Uptake 59Fe, Ave / Uptake 59Fe: % of internalized 59Fe in untreated control cells; details: Control Ave = 100
Method in brief: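 Confluent MCF-7 cells were incubated 3 h at 37°C with 0.75 μM ⁵⁹Fe₂-transferrin (500 pCi/pmol Fe) plus chelator at 25 μM. Membrane-bound ⁵⁹Fe was released with Pronase (1 mg/mL, 30 min, 4°C). Pronase-insensitive internalized ⁵⁹Fe was expressed as % of untreated control.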

caspase 9 = assay: Caspase activity, luminescent kit, caspase 9; format: cell-based, human; details: for kaspáza 9, raw signal / kaspáza 9, signal / viabilita: individual experiments by date; for kaspáza 9, raw signal, průměry / kaspáza 9, % kontroly / kaspáza 9, signal / viabilita, průměry: mean; for kaspáza 9, % kontroly / kaspáza 9, signal / viabilita / kaspáza 9, signal / viabilita, průměry: normalised to viability
Experimental: To assess the effect of the compounds on caspase activity, MCF-7 cells were incubated with 100 nM Bp4eT or its metabolites for 3, 24 or 72 h/37°C in 96-well plates, as described above. The cells were then lysed by adding 100 μL of cold lysis buffer (100 mM HEPES, 10 mM CHAPS, 10 mM D-L-dithiothreitol, pH 7.4) to 100 μL of medium in each well. Lysates were immediately frozen at -80°C. Thawed lysates were used to assess caspase activity using luminescent kits for caspases 3/7, 8 and 9 (Promega, Madison, WI, USA). The luminescence was measured using the Tecan Infinite 200M plate reader. Caspase activity in the experimental groups was corrected according to the cellular viability of each group and expressed as a percentage of activity of the untreated control (100%).

[2] = sheet IBE 1, time 10, replicates
[3] = sheet IBE 1, time 20, replicates
[4] = sheet IBE 1, time 30, replicates

CCNC(=O)NN=C(c1ccccc1)c1ccccn1 [E-Bp4eS, 2-benzoylpyridine 4-ethylsemicarbazone]
%Fe 30min: ascorbate oxidation as % of the Fe control (Fe 100%) ([1]; IBE 0.1, 30 min, mean (průměr)): 110.6% | Change of absorbance after subtraction of time 0 (odečet 0) ([1]; IBE 0.1, time 10, mean (průměr)): -0.03606 | Change of absorbance after subtraction of time 0 (odečet 0) ([1]; IBE 0.1, time 20, mean (průměr)): -0.07143 | Change of absorbance after subtraction of time 0 (odečet 0) ([1]; IBE 0.1, time 30, mean (průměr)): -0.1048 | Absorbance (ascorbate, λ = 265 nm) ([1]; IBE 0.1, čas 0 (time 0), mean (průměr)): 0.8403 | Absorbance (ascorbate, λ = 265 nm) ([1]; IBE 0.1, čas 10 (time 10), mean (průměr)): 0.8042 | Absorbance (ascorbate, λ = 265 nm) ([1]; IBE 0.1, čas 20 (time 20), mean (průměr)): 0.7689 | Absorbance (ascorbate, λ = 265 nm) ([1]; IBE 0.1, čas 30 (time 30), mean (průměr)): 0.7355 | Absorbance (ascorbate, λ = 265 nm) ([1]; IBE 0.1, čas 30 (time 30), single wells): 0.7395 and 0.7451 and 0.7441 and 0.7317 and 0.7361 and 0.735 and 0.7279 and 0.7282 | %Fe 30min (ascorbate oxidation, Fe = 100%), průměr (mean) ([1]; sheet IBE 1, 30min, Fe 100%, mean): 115.7% | %Fe 30min (ascorbate oxidation, Fe = 100%), single replicates ([1]; sheet IBE 1, 30min, Fe 100%, replicates): 118.6% and 122% and 108.4% and 125.1% and 134.4% and 115.2% and 110.6% and 115.1% and 91.71% | raw reading at čas 0 (time 0), průměr (mean) ([1]; sheet IBE 1, time 0, mean of 9 readings): 0.822 | raw reading at čas 0 (time 0), single replicates ([1]; sheet IBE 1, time 0, replicates of 2014-03-24 (two runs) and 2014-03-25): 0.8574 and 0.8322 and 0.8144 and 0.8238 and 0.8106 and 0.8047 and 0.8172 and 0.7979 and 0.8393 | odečet 0 (reading minus time 0 reading) at čas 10, průměr (mean) ([1]; sheet IBE 1, time 10, mean): -0.03765 | raw reading at čas 10 (time 10), průměr (mean) ([1]; sheet IBE 1, time 10, mean of 9 readings): 0.7843 | odečet 0 (reading minus time 0 reading) at čas 10, single replicates [1, 2]: -0.03642 and -0.03472 and -0.03462 and -0.04217 and -0.04047 and -0.03637 and -0.03597 and -0.05027 and -0.02787 | raw reading at čas 10 (time 10), single replicates [1, 2]: 0.778 and 0.7891 and 0.776 and 0.7626 and 0.7768 and 0.7616 and 0.8033 and 0.8071 and 0.8043 | odečet 0 (reading minus time 0 reading) at čas 20, průměr (mean) ([1]; sheet IBE 1, time 20, mean): -0.07141 | raw reading at čas 20 (time 20), průměr (mean) ([1]; sheet IBE 1, time 20, mean of 9 readings): 0.7506 | odečet 0 (reading minus time 0 reading) at čas 20, single replicates [1, 3]: -0.07064 and -0.07124 and -0.06354 and -0.07877 and -0.08537 and -0.07037 and -0.07092 and -0.07622 and -0.05562 | raw reading at čas 20 (time 20), single replicates [1, 3]: 0.7438 and 0.7526 and 0.7471 and 0.726 and 0.7319 and 0.7276 and 0.7684 and 0.7812 and 0.7766 | odečet 0 (reading minus time 0 reading) at čas 30, průměr (mean) ([1]; sheet IBE 1, time 30, mean): -0.1028 | raw reading at čas 30 (time 30), průměr (mean) ([1]; sheet IBE 1, time 30, mean of 9 readings): 0.7192 | odečet 0 (reading minus time 0 reading) at čas 30, single replicates [1, 4]: -0.1024 and -0.1054 and -0.09363 and -0.1081 and -0.1161 and -0.09952 and -0.1043 and -0.1086 and -0.08655 | raw reading at čas 30 (time 30), single replicates [1, 4]: 0.712 and 0.7184 and 0.717 and 0.6966 and 0.7011 and 0.6984 and 0.735 and 0.7488 and 0.7457 | %Fe 30min (ascorbate oxidation, Fe 100%), průměr ([1]; sheet IBE 3, 30min, Fe alone = 100%, mean (průměr) of the 9 replicates): 117.9% | %Fe 30min (ascorbate oxidation, Fe 100%) ([1]; sheet IBE 3, 30min, Fe alone = 100%, single replicates): 124.2% and 115.8% and 108.1% and 126.9% and 132.9% and 126% and 114.7% and 109.6% and 103.1% | Change of absorbance, odečet 0 (time 0 subtracted), čas 10, průměr ([1]; sheet IBE 3, time 10 minus time 0, mean (průměr)): -0.04086 | Change of absorbance, odečet 0 (time 0 subtracted), čas 10 ([1]; sheet IBE 3, time 10 minus time 0, single replicates): -0.04474 and -0.03234 and -0.03864 and -0.04417 and -0.05097 and -0.04457 and -0.03984 and -0.03894 and -0.03354 | Change of absorbance, odečet 0 (time 0 subtracted), čas 20, průměr ([1]; sheet IBE 3, time 20 minus time 0, mean (průměr)): -0.076 | Change of absorbance, odečet 0 (time 0 subtracted), čas 20 ([1]; sheet IBE 3, time 20 minus time 0, single replicates): -0.0807 and -0.0703 and -0.071 and -0.08341 and -0.08461 and -0.08331 and -0.07425 and -0.07045 and -0.06595 | Change of absorbance, odečet 0 (time 0 subtracted), čas 30, průměr ([1]; sheet IBE 3, time 30 minus time 0, mean (průměr)): -0.109 | Change of absorbance, odečet 0 (time 0 subtracted), čas 30 ([1]; sheet IBE 3, time 30 minus time 0, single replicates): -0.1153 and -0.1075 and -0.1003 (2×) and -0.1178 and -0.1233 and -0.1169 and -0.105 and -0.09439 | Uptake 59Fe, Ave (MCF-7 cells; average of all replicates): 105.146 | Uptake 59Fe (MCF-7 cells; single replicate (three per date)): 102.106 and 110.477 and 102.867 and 98.5761 and 110.59 and 101.139 and 107.081 and 112.704 and 100.772 | kaspáza 9, raw signal (caspase 9; 3 hodiny): 5048 and 2733 and 3173 and 2706.5 | kaspáza 9, raw signal, průměry (caspase 9; 3 hodiny): 3415.12 | kaspáza 9, % kontroly (caspase 9; 3 hodiny): 105.55 % kontroly | kaspáza 9, signal / viabilita (caspase 9; 3 hodiny): 51.4121 and 27.8346 and 32.3159 and 27.5647 | kaspáza 9, signal / viabilita, průměry (caspase 9; 3 hodiny): 34.7818 | kaspáza 9, raw signal (caspase 9; 24 hodin): 3856 and 3865 and 5378.5 and 4257 | kaspáza 9, raw signal, průměry (caspase 9; 24 hodin): 4339.12 | kaspáza 9, % kontroly (caspase 9; 24 hodin): 110.34 % kontroly | kaspáza 9, signal / viabilita (caspase 9; 24 hodin): 38.7665 and 38.857 and 54.073 and 42.798 | kaspáza 9, signal / viabilita, průměry (caspase 9; 24 hodin): 43.6236 | kaspáza 9, raw signal (caspase 9; 72 hodin): 22791 and 20686 and 21610 and 23932 | kaspáza 9, raw signal, průměry (caspase 9; 72 hodin): 22254.8 | kaspáza 9, % kontroly (caspase 9; 72 hodin): 104.60 % kontroly | kaspáza 9, signal / viabilita (caspase 9; 72 hodin): 233.013 and 211.492 and 220.939 and 244.678 | kaspáza 9, signal / viabilita, průměry (caspase 9; 72 hodin): 227.53
